Test results taken from patent US20110172296A1, “MODULATION OF TRANSFORMING GROWTH FACTOR-BETA 1 EXPRESSION” (priority 2010, published 2011).
“And” between values parts separate entries of the source, which are not always exact repeats. Equal values may be shown once. In the oligonucleotide strings, read from the 5' end, every base follows the letter of its sugar. An asterisk marks phosphorothioate; unmarked linkages are phosphodiester. Other units and linkages are bracketed, terminal groups are in braces. A string of capitals states the bases alone. e = 2'-O-(2-methoxyethyl) (MOE); [5mC] = 5-methylcytosine; d = 2'-deoxy (DNA)

Test system: human TGF-beta1 mRNA
Assay: Antisense inhibition of human TGF-beta1 mRNA in HuVEC cells, single 10 nM dose, Lipofectamine 2000 (Example 2)
Type: cell-based
Details: for % inhibition: 10 nM oligonucleotide, HuVEC, relative to untreated control cells; for inhibition of a TGF-beta1 mRNA: threshold lists of Oligo IDs, 10 nM
Procedure: Antisense oligonucleotides targeted to a TGF-beta1 nucleic acid were tested for their effects on TGF-beta1 mRNA in vitro. Cultured HuVEC cells at a density of 5,000 cells per well were transfected using Lipofectamine™ 2000 reagent with 10 nM antisense oligonucleotide for 4 hours. After a recovery period of approximately 24 hours, RNA was isolated from the cells and TGF-beta1 mRNA levels were measured by quantitative real-time PCR. TGF-beta1 mRNA levels were adjusted according to total RNA content, as measured by RIBOGREEN®. Results are presented as percent inhibition of TGF-beta1, relative to untreated control cells.
The chimeric antisense oligonucleotides in Tables 1 and 2 were designed as 2-13-5 MOE gapmers. Antisense molecules with this motif targeting TGF-beta1 are unique, and represent a novel chemical structure for an ASO directed against this target. The gapmers are 20 nucleotides in length, wherein the central gap segments are comprised of thirteen 2′-deoxynucleotides and are flanked on the 5′ side by wings comprising two nucleotides each and on the 3′ side by wings comprising five nucleotides each. Each nucleotide in the 5′ wing segment and each nucleotide in the 3′ wing segment has a 2′-MOE modification. The internucleoside linkages throughout each gapmer are phosphorothioate (P═S) linkages. All cytosine residues throughout each gapmer are 5-methylcytosines. “Target start site” indicates the 5′-most nucleotide to which the gapmer is targeted. “Target stop site” indicates the 3′-most nucleotide to which the gapmer is targeted. Each gapmer listed in Table 1 is targeted to SEQ ID NO: 1 (GENBANK Accession No. NM_000660.3). Each gapmer listed in Table 2 is targeted to SEQ ID NO: 2 (GENBANK Accession No. NT 011109.15 truncated from 14103000 to […]).

[1] = gapmers targeted to SEQ ID NO: 1

| Substance | % inhibition [1] [%] | inhibition of a TGF-beta1 mRNA | % inhibition (gapmers targeted to SEQ ID NO: 2) [%] |
| --- | --- | --- | --- |
| 414006 (antisense eT*eA*d[5mC]*d[5mC]*dA*dG*dA*dA*dG*dG*dT*dG*dG*dG*dT*eG*eG*eT*e[5mC]*eT) [compound 414006] | 85 | 60% and 65% and 70% and 75% and 80% and 85% | – |
| 414007 (antisense eG*eG*dT*dA*d[5mC]*d[5mC]*dA*dG*dA*dA*dG*dG*dT*dG*dG*eG*eT*eG*eG*eT) [compound 414007] | 94 | 60% and 65% and 70% and 75% and 80% and 85% and 90% | – |
| 414008 (antisense e[5mC]*eT*dG*dG*dT*dA*d[5mC]*d[5mC]*dA*dG*dA*dA*dG*dG*dT*eG*eG*eG*eT*eG) [compound 414008] | 89 | 60% and 65% and 70% and 75% and 80% and 85% | – |
| 414009 (antisense eA*eT*d[5mC]*dT*dG*dG*dT*dA*d[5mC]*d[5mC]*dA*dG*dA*dA*dG*eG*eT*eG*eG*eG) [compound 414009] | 80 | 60% and 65% and 70% and 75% and 80% | – |
| 414010 (antisense e[5mC]*eG*dA*dT*d[5mC]*dT*dG*dG*dT*dA*d[5mC]*d[5mC]*dA*dG*dA*eA*eG*eG*eT*eG) [compound 414010] | 88 | 60% and 65% and 70% and 75% and 80% and 85% | – |
| 414011 (antisense e[5mC]*eG*d[5mC]*dG*dA*dT*d[5mC]*dT*dG*dG*dT*dA*d[5mC]*d[5mC]*dA*eG*eA*eA*eG*eG) [compound 414011] | 85 | 60% and 65% and 70% and 75% and 80% and 85% | – |
| 414012 (antisense eG*eG*d[5mC]*dG*d[5mC]*dG*dA*dT*d[5mC]*dT*dG*dG*dT*dA*d[5mC]*e[5mC]*eA*eG*eA*eA) [compound 414012] | 87 | 60% and 65% and 70% and 75% and 80% and 85% | – |
| 414013 (antisense eT*eG*dG*dG*d[5mC]*dG*d[5mC]*dG*dA*dT*d[5mC]*dT*dG*dG*dT*eA*e[5mC]*e[5mC]*eA*eG) [compound 414013] | 90 | 60% and 65% and 70% and 75% and 80% and 85% and 90% | – |
| 414014 (antisense eG*eA*dT*dG*dG*dG*d[5mC]*dG*d[5mC]*dG*dA*dT*d[5mC]*dT*dG*eG*eT*eA*e[5mC]*e[5mC]) [compound 414014] | 89 | 60% and 65% and 70% and 75% and 80% and 85% | – |
| 414015 (antisense e[5mC]*e[5mC]*dT*dA*dG*dA*dT*dG*dG*dG*d[5mC]*dG*d[5mC]*dG*dA*eT*e[5mC]*eT*eG*eG) [compound 414015] | 83 | 60% and 65% and 70% and 75% and 80% | – |
| 414016 (antisense eA*eA*d[5mC]*d[5mC]*dT*dA*dG*dA*dT*dG*dG*dG*d[5mC]*dG*d[5mC]*eG*eA*eT*e[5mC]*eT) [compound 414016] | 78 | 60% and 65% and 70% and 75% | – |
| 414017 (antisense eA*eT*dA*dA*d[5mC]*d[5mC]*dT*dA*dG*dA*dT*dG*dG*dG*d[5mC]*eG*e[5mC]*eG*eA*eT) [compound 414017] | 77 | 60% and 65% and 70% and 75% | – |
| 414018 (antisense eA*eA*dA*dT*dA*dA*d[5mC]*d[5mC]*dT*dA*dG*dA*dT*dG*dG*eG*e[5mC]*eG*e[5mC]*eG) [compound 414018] | 82 | 60% and 65% and 70% and 75% and 80% | – |
| 414019 (antisense eG*eG*dA*dA*dA*dT*dA*dA*d[5mC]*d[5mC]*dT*dA*dG*dA*dT*eG*eG*eG*e[5mC]*eG) [compound 414019] | 78 | 60% and 65% and 70% and 75% | – |
| 414020 (antisense eG*eG*dA*dG*dG*d[5mC]*d[5mC]*d[5mC]*d[5mC]*dG*d[5mC]*d[5mC]*d[5mC]*d[5mC]*dT*eG*e[5mC]*eA*eG*eG) [compound 414020] | 0 | – | – |
| 414021 (antisense eT*eG*dT*dA*d[5mC]*dA*dG*dG*dG*d[5mC]*dG*dA*dG*d[5mC]*dA*e[5mC]*eG*eG*e[5mC]*e[5mC]) [compound 414021] | – | 60% and 65% and 70% | 74 |
| 414023 (antisense eT*e[5mC]*dG*dG*dG*d[5mC]*dT*d[5mC]*d[5mC]*dG*dG*dT*dT*d[5mC]*dT*eG*e[5mC]*eA*e[5mC]*eT) [compound 414023] | 78 | 60% and 65% and 70% and 75% | – |

| Substance | % inhibition [1] [%] | inhibition of a TGF-beta1 mRNA | % inhibition (gapmers targeted to SEQ ID NO: 2) [%] |
| --- | --- | --- | --- |
| 414024 (antisense eG*e[5mC]*dT*d[5mC]*dG*dG*dG*d[5mC]*dT*d[5mC]*d[5mC]*dG*dG*dT*dT*e[5mC]*eT*eG*e[5mC]*eA) [compound 414024] | 83 | 60% and 65% and 70% and 75% and 80% | – |
| 414025 (antisense eA*eG*dG*d[5mC]*dT*d[5mC]*dG*dG*dG*d[5mC]*dT*d[5mC]*d[5mC]*dG*dG*eT*eT*e[5mC]*eT*eG) [compound 414025] | 79 | 60% and 65% and 70% and 75% | – |
| 414026 (antisense e[5mC]*e[5mC]*dT*d[5mC]*dA*dG*dG*d[5mC]*dT*d[5mC]*dG*dG*dG*d[5mC]*dT*e[5mC]*e[5mC]*eG*eG*eT) [compound 414026] | 82 | 60% and 65% and 70% and 75% and 80% | – |
| 414027 (antisense eG*eG*d[5mC]*d[5mC]*dT*d[5mC]*dA*dG*dG*d[5mC]*dT*d[5mC]*dG*dG*dG*e[5mC]*eT*e[5mC]*e[5mC]*eG) [compound 414027] | 84 | 60% and 65% and 70% and 75% and 80% | – |
| 414028 (antisense e[5mC]*e[5mC]*dA*dT*dT*dA*dG*d[5mC]*dA*d[5mC]*dG*d[5mC]*dG*dG*dG*eT*eG*eA*e[5mC]*e[5mC]) [compound 414028] | 75 | 60% and 65% and 70% and 75% | – |
| 414029 (antisense eG*eA*dG*d[5mC]*dT*d[5mC]*dT*dG*dA*dT*dG*dT*dG*dT*dT*eG*eA*eA*eG*eA) [compound 414029] | 73 | 60% and 65% and 70% | – |
| 414030 (antisense e[5mC]*eT*dA*dA*dG*dG*d[5mC]*dG*dA*dA*dA*dG*d[5mC]*d[5mC]*d[5mC]*eT*e[5mC]*eA*eA*eT) [compound 414030] | 60 | 60% | – |
| 414031 (antisense eA*eT*dG*dT*d[5mC]*d[5mC]*dA*d[5mC]*dT*dT*dG*d[5mC]*dA*dG*dT*eG*eT*eG*eT*eT) [compound 414031] | 66 | 60% and 65% | – |
| 414032 (antisense eG*eG*dG*dT*dT*dA*dT*dG*d[5mC]*dT*dG*dG*dT*dT*dG*eT*eA*e[5mC]*eA*eG) [compound 414032] | 80 | 60% and 65% and 70% and 75% and 80% | – |
| 414033 (antisense e[5mC]*eT*d[5mC]*d[5mC]*dA*d[5mC]*d[5mC]*dT*dT*dG*dG*dG*d[5mC]*dT*dT*eG*e[5mC]*eG*eG*e[5mC]) [compound 414033] | 80 | 60% and 65% and 70% and 75% and 80% | – |
| 414034 (antisense e[5mC]*e[5mC]*dT*dT*dA*dA*dA*dT*dA*d[5mC]*dA*dG*d[5mC]*d[5mC]*d[5mC]*e[5mC]*e[5mC]*eA*eT*eG) [compound 414034] | 68 | 60% and 65% | – |
| 414038 (antisense eA*e[5mC]*dG*dG*dG*dT*dG*dT*d[5mC]*d[5mC]*dT*dT*dA*dA*dA*eT*eA*e[5mC]*eA*eG) [compound 414038] | 85 | 60% and 65% and 70% and 75% and 80% and 85% | – |
| 414039 (antisense eG*e[5mC]*dA*d[5mC]*dG*dG*dG*dT*dG*dT*d[5mC]*d[5mC]*dT*dT*dA*eA*eA*eT*eA*e[5mC]) [compound 414039] | 83 | 60% and 65% and 70% and 75% and 80% | – |
| 414041 (antisense eA*e[5mC]*dA*dG*dA*dG*dA*dT*d[5mC]*d[5mC]*dG*d[5mC]*dA*dG*dT*e[5mC]*e[5mC]*eT*e[5mC]*eT) [compound 414041] | 74 | 60% and 65% and 70% | – |
| 414042 (antisense e[5mC]*eG*d[5mC]*d[5mC]*d[5mC]*dA*dA*dT*dG*dA*d[5mC]*dA*d[5mC]*dA*dG*eA*eG*eA*eT*e[5mC]) [compound 414042] | 68 | 60% and 65% | – |
| 414043 (antisense e[5mC]*e[5mC]*dT*dT*dG*dA*dT*dG*d[5mC]*d[5mC]*dG*dG*dG*d[5mC]*dA*eA*eA*eG*eG*eA) [compound 414043] | 64 | 60% | – |
| 414044 (antisense eA*eT*d[5mC]*dT*dA*dA*d[5mC]*dT*dA*d[5mC]*dA*dG*dT*dA*dG*eT*eG*eT*eT*e[5mC]) [compound 414044] | 31 | – | – |
